# From US20100168120A1, “SALTS OF PYRIDAZINE COMPOUNDS” (NEUROMEDIX INC., priority 2006, published 2010)
# Entries after “also recorded” stand apart in the source; their conditions may differ. Like-named read-outs stand apart in the source and are kept apart here.
# How the values were obtained:
# NO production = test: Inhibition of NO production (glial activation); format: cell-based; details: read-out: NO, concentration required for 50% inhibition
# [1] = logP by octanol/water partition coefficient
# IL-1β production = test: Inhibition of IL-1β production (glial activation); format: cell-based; details: in words
# [2] = system: human amyloid-beta (Aβ)-induced injury; test: AD-relevant mouse model of human Aβ-induced injury (Aβ infusion model); format: in vivo; details: hippocampus, […] oral once daily for 2 weeks, dihydrochloride salt
# Experimental: The efficacy of Minozac in an AD-relevant mouse model of human amyloid-beta (Aβ)-induced injury (infusion of human Aβ peptide) was determined. Briefly, C57BL/6 mice (n=5-10 mice per group) were subjected to either vehicle (Control) or human oligomeric Aβ1-42 intracerebroventricular (ICV) infusion for four weeks. […] Beginning at day 50 after the start of Aβ ICV infusion, the Y-maze test of spontaneous alternation was used to evaluate hippocampus-dependent spatial learning deficits. At day 60 after the start of Aβ ICV infusion, mice were sacrificed, perfused with buffer containing a protease inhibitor cocktail, and the brain was harvested. The brain was longitudinally bisected and the right half of the brain used for histology. The hippocampus was dissected from the left half of the brain. The levels of IL-1β, TNFα, S100B and synaptophysin were measured in hippocampal extracts by ELISA, and postsynaptic density-95 ([…]) levels were determined by Western blotting. Immunohistochemical detection of GFAP-positive astrocytes and F4/80 positive microglia was performed on 10 μm sections.
# LPS inflammation model = test: Systemic proinflammatory cytokine expression after LPS challenge; format: in vivo, mouse; details: 15 mg/kg orally for 14 days, LPS challenge day 15, serum at 6 hours
# Experimental: The effect of Minozac on the systemic expression of proinflammatory cytokines was determined. Briefly, saline (0.9% NaCL) or Minozac (15 mg/kg) was administered orally for 14 days. Mice were challenged with LPS at the 15th day. Mice were sacrificed at 6 hours after LPS challenge and blood harvested for serum. The levels of cytokines TNFα and […] in the serum were measured using the Meso-scale Discovery system according to manufacturer's instructions. The data for TNFα and IL-1β are shown in FIG. 4 as percent of the level observed in the saline treated mice.
# [3] = In vitro metabolic stability in rat liver microsomes; format: in vitro ADME; details: 5 μM or 25 μM, 10 or 30 min
# Experimental: (§1) In particular FIG. 3 are bar graphs showing that MW01-9-034WH has improved metabolic stability in rat (A) and human (B) liver microsome incubations compared to minaprine. […] Extracts were prepared, and the amount of compound remaining was analyzed by HPLC using internal standards for recovery.
# in vivo = test: in vivo
# Experimental: Plasma samples obtained from dog pharmacokinetic studies were analyzed using reversed phase HPLC with tandem mass spectrometric detection. Briefly, aliquots of internal standard (200 μl of 200 ng/ml) were added to protein precipitation plates (Sirocco protein precipitation plates, Waters Corporation, Milford, Mass., USA), followed by addition of plasma sample to the plate (50 μl). The plate was shaken for 3 minutes, and then a vacuum (maximum of −10 mm Hg) was applied to the plate for 3 minutes. Extract (75 μl) was transferred into a 2 ml 96-well plate, and to each sample was added 1425 μl of Eluent A (95:5:0.1 MilliQ water:acetonitrile:formic acid). 10 μl was injected onto the reverse phase column (ODS C18; 4×2 mm i.d.; Phenomenex, Torrance, USA). The mobile phase was set to 300 μl/min and eluate by mass spectrometry (APT 5000, Applied Biosystems). Calibration standards were processed along with the samples, and the concentration of Minozac [2-(4-(4-methyl-6-phenylpyridazin-3-yl)piperazin-1-yl)pyrimidine dihydrochloride salt] determined using a regression equation. […] The internal standard was compound code MW01-8-064WH (chemical name: 4-methyl-3-phenyl-6-((4-pyrimidin-2-yl)piperazin-1-yl)pyridazine).
# The pharmacokinetics of Minozac was determined at 2.5 mg/kg following oral administration by gavage of an aqueous solution.
# Intravenous dosing was also carried out at 2.5 mg/kg, but with drug in a 0.9% saline solution.
# The pharmacokinetics were determined following oral dosing with a neutralized propylene glycol formulation (FIG. 6) and with filled gelatin capsules at a single dose of 2.5 mg/kg (FIG. 7).
# [4] = PK assessment in mice, plasma and brain after single oral dose; details: C57BL/6, mouse
# [5] = Chemical stability in water, dilute acid or dilute base; format: physicochemical; details: dilute acid, or dilute base at 37° C. over one week
# [6] = In vitro metabolic stability in human liver microsomes; format: in vitro ADME; details: 5 μM or 25 μM, 10 or 30 min
# Experimental: as §1
# physchem = details: 37 °C, water, aqueous solubility
compound,measurement,setting,value
"c1ccc(-c2cc(-c3ccccc3)c(N3CCN(c4ncccn4)CC3)nn2)cc1 [Compound 1, 4,6-diphenyl-3-(4-pyrimidin-2-ylpiperazin-1-yl)pyridazine]",IC50,NO production,> 25 µM
same,logP,[1]; octanol/water,2.3
"Cc1cc(-c2ccccc2)nnc1N1CCN(c2ncccn2)CC1 [Compound 5, 4-methyl-6-phenyl-3-(4-pyrimidin-2-ylpiperazin-1-yl)pyridazine]",IC50,NO production,> 25 µM
same,selective suppression of IL-1 production compared to NO production,IL-1β production,retained selective suppression
Cc1cc(-c2ccccc2)nnc1N1CCN(c2ncccn2)CC1.Cl.Cl [Compound 6],selective suppression of IL-1 production compared to NO production,IL-1β production,lost selectivity
Cc1cc(-c2ccccc2)nnc1N1CCN(C)CC1 [Compound 11],activity (suppression of proinflammatory cytokine production in glia),IL-1β production,loss of activity; also recorded: diminution of activity
"Cc1cc(-c2ccccc2)nnc1N1CCN(c2ncccn2)CC1.Cl.Cl [Compound 16, 2-(4-(4-methyl-6-phenylpyridazin-3-yl)piperazin-1-yl)pyrimidine dihydrochloride salt]",number of activated F4/80-positive microglia,[2],reduced
same,number of activated F4/80-positive microglia,[2]; listed as MW01-9-034WH,decreases
same,number of activated F4/80-positive microglia,[2]; listed as Minozac,reduced
same,systemic (serum) expression of IL-1β,LPS inflammation model,no effect
same,systemic (serum) expression of TNFα,LPS inflammation model,no effect
same,"metabolic stability, compound remaining",[3],stable even after 30 min incubation
same,Vd,"in vivo; Beagle, dog, iv, […], Vss",44.5 ± 10.3 L
same,Vd,"in vivo; Beagle, dog, iv, […], Vz",95.1 ± 43.6 L
same,half-life,"in vivo; in vivo, iv, […]",4.49 h
same,bioavailability,"in vivo; in vivo, po, […]",23%
same,half-life,"in vivo; in vivo, po, […]",2.1 h
same,bioavailability,"in vivo; male, Beagle, dog",16%
same,bioavailability,"in vivo; male, Beagle, dog, po",21%
same,half-life,"in vivo; male, Beagle, dog, po, […], t1/2",1.47 h
same,Tmax,[4]; brain,~0.25 h
same,half-life,[4]; brain,~0.75 h
same,half-life,[4]; plasma,~0.25 h
same,logP,[1],2.29
same,logP,[1]; octanol/water,2.7
same,loss of material (chemical stability),[5],less than 10%
same,"metabolic stability, compound remaining",[6],stable even after 30 min incubation
same,solubility,physchem,> 322 mg/mL
"Cc1cc(-c2ccccc2)nnc1NCCN1CCOCC1 [minaprine, reference compound]","metabolic stability, compound remaining",[3],majority of minaprine is gone by 10 min
same,"metabolic stability, compound remaining",[6],majority of minaprine is gone by 10 min
